Reference: ChEMBL document CHEMBL1143031, “First synthesis of 7alpha- and 7beta-amino-DHEA, dehydroepiandrosterone (DHEA) analogues and preliminary evaluation of their cytotoxicity on Leydig cells and TM4 Sertoli cells” (2007)

Columns and labels:
Format in all cases: functional
[1] = Effect on apoptosis in Sprague-Dawley rat Leydig cells assessed as cell viability at 70 uM after 24 hrs by DAPI test; conditions: read-out: Activity
[2] = Effect on apoptosis in Sprague-Dawley rat Leydig cells assessed as cell viability at 35 uM after 24 hrs by DAPI test; conditions: read-out: Activity
[3] = Effect on apoptosis in BALB/c mouse sertoli TM4 cells assessed as cell viability at 35 uM after 24 hrs by DAPI test; conditions: TM4, 24 h, read-out: Activity
[4] = Effect on apoptosis in BALB/c mouse sertoli TM4 cells assessed as cell viability at 70 uM after 24 hrs by DAPI test; conditions: TM4, 24 h, read-out: Activity
[5] = Effect on cell necrosis in Sprague-Dawley rat Leydig cells assessed as cell viability at 35 uM after 24 hrs by trypan blue test; conditions: read-out: Activity
[6] = Effect on cell necrosis in Sprague-Dawley rat Leydig cells assessed as cell viability at 70 uM after 24 hrs by trypan blue test; conditions: read-out: Activity
[7] = Effect on necrosis in BALB/c mouse sertoli TM4 cells assessed as cell viability at 35 uM after 24 hrs by Trypan blue test; conditions: TM4, 24 h, read-out: Activity
[8] = Effect on necrosis in BALB/c mouse sertoli TM4 cells assessed as cell viability at 70 uM after 24 hrs by Trypan blue test; conditions: TM4, 24 h, read-out: Activity

Compound | viability at 70 µM [1] | viability at 35 µM [2] | viability at 35 µM [3] | viability at 70 µM [4] | viability at 35 µM [5] | viability at 70 µM [6] | viability at 35 µM [7] | viability at 70 µM [8]
C[C@]12CC[C@H](O)CC1=C[C@H](N)[C@@H]1[C@@H]2CC[C@]2(C)C(=O)CC[C@@H]12 | 89% | 92% | 82% | 79% | 93% | 85% | 64% | 0%
C[C@]12CC[C@H](O)CC1=CC[C@@H]1[C@@H]2CC[C@]2(C)C(=O)CC[C@@H]12 [PRASTERONE] | 95% | 95% | 90% | 90% | 86% | 76% | 92% | 92%
